Our source for the IC50 values is patent US20100041760A1, “MONOARYL AMINOTETRALINES” (priority 2008, published 2010).

A value given as a limit tells only on which side of the number the result lay.

One test addresses T1, human CRTH2 (Homo sapiens, UniProt Q9Y5Y4).
T1 sequence (Q9Y5Y4 1-395): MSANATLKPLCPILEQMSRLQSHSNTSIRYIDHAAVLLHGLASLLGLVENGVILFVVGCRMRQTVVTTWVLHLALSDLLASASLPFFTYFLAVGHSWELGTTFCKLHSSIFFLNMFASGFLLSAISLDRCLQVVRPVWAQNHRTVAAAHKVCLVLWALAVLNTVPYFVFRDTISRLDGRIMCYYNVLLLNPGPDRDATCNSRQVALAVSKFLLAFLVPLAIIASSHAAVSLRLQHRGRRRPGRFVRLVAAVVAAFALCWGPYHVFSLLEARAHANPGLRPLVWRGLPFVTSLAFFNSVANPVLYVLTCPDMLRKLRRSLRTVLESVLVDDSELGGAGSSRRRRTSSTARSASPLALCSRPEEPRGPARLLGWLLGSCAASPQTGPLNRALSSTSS
Put plainly: Human CRTH2 Receptor Binding Assay (whole cell, [3H]ramatroban competition). Details: expressed in transfected cells; host or cells: CHO-K1 (co-transfected with G-alpha16). The following applies: CHO-K1 cells expressing human CRTH2 and G-alpha16; 20 nM [3H]ramatroban; 1 hour, room temperature. From the text: A whole cell receptor binding assay using [^3H]ramatroban as the competing radioactive ligand was employed to evaluate the compound binding activity to human CRTH2. The radioactive ligand [^3H]ramatroban was synthesized according to Sugimoto et. al. (Eur. J. Pharmacol. 524, 30-37, 2005) to a specific activity of 42 Ci/mmol.
A cell line stably expressing human CRTH2 was established by transfecting CHO-K1 cells with two mammalian expression vectors that harbored human CRTH2 and G-alpha16 cDNAs, respectively, using FuGene® 6 transfection reagent (from Roche). Stable clones expressing CRTH2 were selected by staining each clone with BM16 (BD Pharmingen™ from BD Biosciences, a division of Becton, Dickinson and Company), which is a rat monoclonal antibody to human CRTH2. The cells were maintained as monolayer cultures in Ham's F-12 medium containing 10% fetal bovine serum, 100 units/mL penicillin, 100 μg/mL streptomycin, 2 mM glutamine, 0.5 mg/mL G418 (geneticin) for CRTH2, and 0.2 mg/mL hygromycin-B (for G-alpha 16). For whole cell receptor binding assay, the monolayer cells were rinsed once with PBS (phosphate buffered saline), dissociated using ethylenediaminetetraacetate (Versene™ EDTA from Lonza Inc.), and suspended in PBS containing 10 mM MgCl2 and 0.06% BSA (bovine serum albumin) at 1.5×10^6 cells/mL.
The binding reactions (0.2 mL) were performed in 96-well plates at room temperature in PBS containing 1.5×10^5 cells, 10 mM MgCl2, 0.06% BSA, 20 nM [^3H]ramatroban, and test compound at various concentrations. After 1 hour of binding reactions, the cells were harvested on GF™/B filter microplates (microtiter plates with embedded glass fiber from PerkinElmer, Inc.) and washed 5 times with PBS using a Filtermate™ Harvester (a cell harvester that harvests and washes cells from microplates from PerkinElmer, Inc.). The radioactivities bound to the cells were determined using a microplate scintillation counter (TopCount® NXT, from PerkinElmer, Inc.) after adding 50 μL of Microscint™ 20 scintillation fluid (from PerkinElmer, Inc.) to each well of the filter plates. The radioactivity from non-specific binding was determined by replacing compound with 10 μM of 15(R)-15-methyl PGD2 (from Cayman Chemical Company) in the reaction mixtures. The radioactivity bound to the cells in the absence of compound (total binding) was determined by replacing compound with 0.25% of DMSO (dimethyl sulfoxide) in the reaction mixture. Specific binding data were obtained by subtracting the radioactivity of non-specific binding from each binding data.
(§1) The IC50 value is defined as the concentration of the tested compound that is required for 50% inhibition of total specific binding. In order to calculate the IC50 value, the percent inhibition data were determined for 7 concentrations for each compound. The percent inhibition for a compound at each concentration was calculated according to the following formula, [1−(specific binding in the presence of compound)/(total specific binding)]×100. The IC50 value was then obtained by fitting the percent inhibition data to a sigmoidal dose-response (4 parameter logistic) model in the XLfit® software Excel add-in program [from ID Business Solutions Ltd., model 205, where F(x)=(A+(B−A)/(1+((C/x)̂D)))].

Test [1] addresses T2, thromboxane A2 receptor (TP) (Homo sapiens, UniProt P21731).
T2 construct: using human platelets as the source of the receptor; from tissue; host or cells: human platelets (whole platelets, 5x10^7 per well)
T2 sequence (P21731 1-343): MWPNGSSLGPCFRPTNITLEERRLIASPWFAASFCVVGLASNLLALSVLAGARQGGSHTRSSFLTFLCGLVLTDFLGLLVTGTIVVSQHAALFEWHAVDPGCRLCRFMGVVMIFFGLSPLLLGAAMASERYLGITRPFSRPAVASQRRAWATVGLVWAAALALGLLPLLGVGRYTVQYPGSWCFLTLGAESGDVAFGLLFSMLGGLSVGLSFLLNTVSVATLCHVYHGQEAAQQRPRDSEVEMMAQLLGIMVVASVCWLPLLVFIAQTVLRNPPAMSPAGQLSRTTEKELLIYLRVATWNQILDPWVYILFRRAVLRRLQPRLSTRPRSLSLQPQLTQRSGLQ
The test can be described thus: Human Thromboxane A2 Receptor Binding Assay. The note with it: human platelets; 10 nM [3H]SQ29548; 1 hour, room temperature.
Source text: The thromboxane A2 receptor (TP) plays a key role in hemostasis as its abnormality leads to bleeding disorders. To avoid the potential liability of bleeding disorders, the binding activity of certain compounds of the present invention against TP was monitored by a receptor binding assay using human platelets as the source of the receptor and [^3H]SQ29548 (generically named (5Z)-[5,6-^3H]-7-[(1S,2R,3R,4R)-3-[[2-[(phenylamino)carbonyl]hydrazinyl]methyl]-7-oxabicyclo[2.2.1]hept-2-yl]-5-heptenoic acid, from PerkinElmer Inc.) as the competing radioactive ligand.
The TP binding reactions (0.2 mL) were performed in 96-well plates at room temperature in PBS containing 5×10^7 platelets, 10 mM MgCl2, 0.06% BSA, 10 nM [^3H]SQ29548, and the test compound at various concentrations. After 1 hour of binding reactions, the platelets were harvested on GF/B filter plates (as previously described from PerkinElmer Inc.) and washed 5 times with PBS using a Filtermate™ Harvester (as previously described from PerkinElmer Inc.). The radioactivities bound to the platelets were determined using a microplate scintillation counter (TopCount® NXT, from PerkinElmer Inc.) after adding 50 μL of Microscint™ 20 scintillation fluid (from PerkinElmer Inc.) to each well of the filter plates. The radioactivity from non-specific binding was determined by replacing the compound with 10 μM of ramatroban (BAY-u3405, from Cayman Chemical Company) in the reaction mixtures. The radioactivity bound to the platelets in the absence of compound (total binding) was determined by replacing the compound with 0.25% of DMSO in the reaction mixture. Specific binding data were obtained by subtracting the radioactivity of non-specific binding from each binding data.
as §1

For the compound `CN([C@@H]1CCCc2c(OCC(=O)O)cccc21)S(=O)(=O)c1cc(C(C)(C)C)cc(C(C)(C)C)c1` [Example 1-2, {(R)-5-[(3,5-di-tert-butyl-benzenesulfonyl)-methyl-amino]-5,6,7,8-tetrahydro-naphthalen-1-yloxy}-acetic acid], the figures for the IC50 (at human CRTH2; in test [1]) were 177 nM and over 10000 nM, respectively.

Regarding `CN([C@@H]1CCCc2c(OCC(=O)O)cccc21)S(=O)(=O)c1cc(S(C)(=O)=O)cc(S(C)(=O)=O)c1` [Example 1-3, {(R)-5-[(3,5-bis-methanesulfonyl-benzenesulfonyl)-methyl-amino]-5,6,7,8-tetrahydro-naphthalen-1-yloxy}-acetic acid], the IC50 – broadly, the point on the concentration scale where inhibition reaches its midpoint – on human CRTH2 is 15.7 nM; in test [1], over 10000 nM.

For the compound `COc1cc(C(F)(F)F)cc(S(=O)(=O)N(C)[C@@H]2CCCc3c(OCC(=O)O)cccc32)c1` [Example 1-4, {(R)-5-[(3-methoxy-5-trifluoromethyl-benzenesulfonyl)-methyl-amino]-5,6,7,8-tetrahydro-naphthalen-1-yloxy}-acetic acid], the IC50 on human CRTH2 is 110 nM; in test [1], over 10000 nM.

As to `CN([C@@H]1CCCc2c(OCC(=O)O)cccc21)S(=O)(=O)c1cc(Br)cc(C(F)(F)F)c1` [Example 1-5, {(R)-5-[(3-bromo-5-trifluoromethyl-benzenesulfonyl)-methyl-amino]-5,6,7,8-tetrahydro-naphthalen-1-yloxy}-acetic acid], the IC50 on human CRTH2 is 74.2 nM; in test [1], over 10000 nM.

Consider `CN([C@@H]1CCCc2c(OCC(=O)O)cccc21)S(=O)(=O)c1cc(C(F)(F)F)cc(C(F)(F)F)c1` [Example 1-6, {(R)-5-[(3,5-bis-trifluoromethyl-benzenesulfonyl)-methyl-amino]-5,6,7,8-tetrahydro-naphthalen-1-yloxy}-acetic acid], for which the IC50 is 18.3 nM on human CRTH2 and over 10000 nM in test [1].

`CC(C)[S+]([O-])c1cc(C(F)(F)F)cc(S(=O)(=O)N(C)[C@@H]2CCCc3c(OCC(=O)O)cccc32)c1` (stereo partly drawn) [Example 2-1, ((R)-5-{methyl-[3-(propane-2-sulfinyl)-5-trifluoromethyl-benzenesulfonyl]-amino}-5,6,7,8-tetrahydro-naphthalen-1-yloxy)-acetic acid]: the figures for the IC50 (on human CRTH2; in test [1]) were 6.8 nM and over 10000 nM, respectively.

On to `CN([C@@H]1CCCc2c(OCC(=O)O)cccc21)S(=O)(=O)c1cc(C(F)(F)F)cc(S(=O)(=O)C2CCCC2)c1` [Example 3-1, {(R)-5-[(3-cyclopentanesulfonyl-5-trifluoromethyl-benzenesulfonyl)-methyl-amino]-5,6,7,8-tetrahydro-naphthalen-1-yloxy}-acetic acid], for which the IC50 is 2.9 nM at human CRTH2 and over 10000 nM in test [1].

In the case of `CC(C)S(=O)(=O)c1cc(C(F)(F)F)cc(S(=O)(=O)N(C)[C@@H]2CCCc3c(OCC(=O)O)cccc32)c1` [Example 3-2, ((R)-5-{methyl-[3-(propane-2-sulfonyl)-5-trifluoromethyl-benzenesulfonyl]-amino}-5,6,7,8-tetrahydro-naphthalen-1-yloxy)-acetic acid], the IC50 on human CRTH2 was 3.6 nM; in test [1] it was over 10000 nM.

Turning to `CN([C@@H]1CCCc2c(OCC(=O)O)cccc21)S(=O)(=O)c1cc(C(F)(F)F)cc(S(=O)(=O)C(C)(C)C)c1` [Example 3-3, ((R)-5-{methyl-[3-(2-methyl-propane-2-sulfonyl)-5-trifluoromethyl-benzenesulfonyl]-amino}-5,6,7,8-tetrahydro-naphthalen-1-yloxy)-acetic acid], the results for the IC50 (on human CRTH2; in test [1]) were 3.4 nM and over 10000 nM, respectively.

Regarding `CN([C@@H]1CCCc2c(OCC(=O)O)cccc21)S(=O)(=O)c1cc(N2CCCC2)cc(C(F)(F)F)c1` [Example 4-1, {(R)-5-[methyl-(3-pyrrolidin-1-yl-5-trifluoromethyl-benzenesulfonyl)-amino]-5,6,7,8-tetrahydro-naphthalen-1-yloxy}-acetic acid], the IC50 on human CRTH2 was 127 nM; in test [1], over 10000 nM.

For `CC(C)N(C)c1cc(C(F)(F)F)cc(S(=O)(=O)N(C)[C@@H]2CCCc3c(OCC(=O)O)cccc32)c1` [Example 4-3, ((R)-5-{[3-(isopropyl-methyl-amino)-5-trifluoromethyl-benzenesulfonyl]-methyl-amino}-5,6,7,8-tetrahydro-naphthalen-1-yloxy)-acetic acid], the figures for the IC50 (on human CRTH2; in test [1]) were 410 nM and over 10000 nM, respectively.

Turning to `CN([C@@H]1CCCc2c(OCC(=O)O)cccc21)S(=O)(=O)c1cc(C(C)(F)F)cc(C(F)(F)F)c1` [Example 5-1, ((R)-5-{[3-(1,1-difluoro-ethyl)-5-trifluoromethyl-benzenesulfonyl]-methyl-amino}-5,6,7,8-tetrahydro-naphthalen-1-yloxy)-acetic acid], the IC50 on human CRTH2 was 16.5 nM; in test [1], over 10000 nM.

Take `CC(=O)c1cc(C(F)(F)F)cc(S(=O)(=O)N(C)[C@@H]2CCCc3c(OCC(=O)O)cccc32)c1` [Example 6-1, {(R)-5-[(3-acetyl-5-trifluoromethyl-benzenesulfonyl)-methyl-amino]-5,6,7,8-tetrahydro-naphthalen-1-yloxy}-acetic acid]: the values for the IC50 (on human CRTH2; in test [1]) were 78.2 nM and over 10000 nM, respectively.

As to `CN([C@@H]1CCCc2c(OCC(=O)O)cccc21)S(=O)(=O)c1cc(C(F)(F)F)cc(C2(C)CC2)c1` [Example 7-1, ((R)-5-{methyl-[3-(1-methyl-cyclopropyl)-5-trifluoromethyl-benzenesulfonyl]-amino}-5,6,7,8-tetrahydro-naphthalen-1-yloxy)-acetic acid], the IC50 was 76.6 nM at human CRTH2 and over 10000 nM in test [1].
